# From patent US11425909B2, “Use of tetrazolinones for combating resistant phytopathogenic fungi on fruits” (priority 2016, dated 2022)
# System: Uncinula necator (UNCINE), Qol-sensitive isolate
# Test: Activity against grape powdery mildew, protective glasshouse test, Qol-sensitive isolate
# Format: in vivo
# Conditions: % infected leaf area on grape plants, inoculated 2 days after treatment, assessed 19 days after inoculation
# Description: Activity against grape powdery mildew caused by Uncinula necator (UNCINE)
# The active compounds were formulated separately. Both compounds were applied on plants at the same concentrations of 100, 25 and 5 ppm. The spray broths were prepared as aqueous solutions based on a 6% EC of compound I according to the present invention and a 5% Aceton/water solution of compound I-213 from prior art (WO2013/092224).
# The spray solutions were applied until runoff using an experimental glasshouse spray machine at a water volume equivalent to 1.000 L/ha. Treated plants were placed (together with untreated plants as a reference for infection success) in a glasshouse chamber at approx. 18° C. and 50% rH for two days. Two days after treatment, the plants were split into two groups. They were artificially inoculated using an aqueous conidia suspension of 0.1 to 0.5 E05 conidia/ml. One part was inoculated using a Qol-sensitive isolate, the other part using a Qol-resistant isolate carrying the target mutation G143A. After the artificial inoculation, the plants were placed in a glasshouse chamber at 21° C. and 55% rH for 19 days. The assessment of the infection was done 19 days after the inoculation and reported as % infected leaf area on two leaves which were fully covered by the spray application.
smiles,measurement,setting,value
"Cc1cccc(-n2nnn(C)c2=O)c1COc1ccn(-c2ccc(Cl)cc2)n1 [compound I, 1-[2-[[1-(4-chlorophenyl)pyrazol-3-yl]oxymethyl]-3-methyl-phenyl]-4-methyl-tetrazol-5-one]",Infection (%) Sens. Uncinula necator,5 ppm spray,0.3%
same,Infection (%) Sens. Uncinula necator,25 ppm spray,0.4%
same,Infection (%) Sens. Uncinula necator,100 ppm spray,0.0%
